“Also recorded” adds a separate entry of the source.
Assays:
[1] = target: T1, ODC (Homo sapiens, UniProt P11926); conditions: concentrations from 0.6 μM to 80 μM; cited from earlier work
T1 sequence (P11926 1-461): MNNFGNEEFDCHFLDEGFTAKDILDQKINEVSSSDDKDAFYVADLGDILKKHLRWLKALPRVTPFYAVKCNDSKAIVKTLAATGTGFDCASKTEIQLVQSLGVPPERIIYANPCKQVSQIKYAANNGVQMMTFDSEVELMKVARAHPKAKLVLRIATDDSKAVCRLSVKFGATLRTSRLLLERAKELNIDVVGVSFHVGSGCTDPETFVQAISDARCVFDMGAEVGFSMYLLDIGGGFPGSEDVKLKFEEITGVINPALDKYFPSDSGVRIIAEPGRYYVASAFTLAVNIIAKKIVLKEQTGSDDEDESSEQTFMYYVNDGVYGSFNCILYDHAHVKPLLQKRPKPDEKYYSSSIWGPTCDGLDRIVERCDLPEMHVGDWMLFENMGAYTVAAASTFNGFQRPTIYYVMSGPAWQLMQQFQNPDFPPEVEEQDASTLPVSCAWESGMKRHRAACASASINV

[2] = guinea pigs; cited from earlier work
[3] = system: HCT116 cells; test: Intracellular polyamine pools by high pressure liquid chromatography after DFMO / PG-11144 treatment; format: cell-based, human
Procedure: DFMO (2- or α-difluoromethylornithine) can be obtained from Merrell Dow Pharmaceutical Inc. (Cincinnati, Ohio). Polyamine analogues are provided by Progen Pharmaceuticals Ltd. (Queensland, Australia). Stock solutions of each compound are diluted with medium to the desired concentrations for specific experiments. HCT116 colorectal carcinoma cells are maintained in McCoy's 5A medium supplemented with 9% FBS (Atlanta Biologicals, Lawrenceville, Ga.) and 1% penicillin/streptomycin (Mediatech, Manassas, Va.), and grown at 37° C. in 5% CO2 atmosphere. For experiments, HCT116 cells are first treated for 24 hours with 5 mM DFMO followed by another 24 hours treatment of replenished 5 mM DFMO and polyamine analogues in the indicated doses alone or simultaneously. Intracellular polyamine concentrations are determined by high pressure liquid chromatography.
A mixture of both D-enantiomer of DFMO and L-enantiomer of DFMO is used to generate data in Table 1.

[4] = system: six human tumors (three mammary carcinomas, a malignant melanoma, a bladder carcinoma, an endocervical carcinoma); conditions: after DFMO treatment; cited from earlier work
[5] = system: colon adenomas and carcinomas; conditions: animal models of colon carcinogenesis; cited from earlier work
[6] = target: T1, ODC; test: Inhibition of ODC activity by DFMO enantiomers; format: biochemical
Procedure: The use of D-DFMO or enriched D-isomer mixtures can overcome many of the problems associated with the use of racemic (50/50) D,L-DFMO. D-DFMO or enriched D-DFMO isomer mixtures may be administered at a dosage higher than a racemic mixture, due to lower anticipated toxicity associated with the D enantiomer. In three separate studies using concentrations from 0.6 μM to 80 μM D-, L-, and D,L-DFMO, the effective concentration level of each which inhibits 50% of the ODC activity (Ki) can be determined. Both enantiomers, as well as the racemic mixture, were inhibitory.

[7] = system: Egr1 and Oct4 genes in P19 embryonal carcinoma cells; conditions: cited from earlier work
[8] = system: SFRP2 in HCT116 cells; test: Re-expression of aberrantly silenced SFRP2, qPCR; format: cell-based, human
Procedure: HCT116 cells are first treated for 24 hour with 5 mM DFMO followed by another 24 hour treatment of replenished 5 mM DFMO and oligoamines (PG-11144 and PG-11150 for panel A, PG-11157, PG 11158 and PG-11159 for panel B) alone or simultaneously. RNA is extracted using TRIzol reagents and first-strand cDNA is synthesized using M-MLV reverse transcriptase with an oligo(dT) primer (Invitrogen). qPCR for SFRP2 is performed in a MyiQ single color real-time PCR machine with GAPDH as an internal control. The SFRP2 primers used for qPCR are: sense, 5′ AAGCCTGCAAAAATAAAAATGATG (SEQ ID NO: 1); antisense, 5′ TGTAAATGGTCTTGCTCTTGGTCT (SEQ ID NO: 2) (annealing at 53° C.). The quantified results are the mean of triplicate treatments. The transcript level for control samples was set to a value of 1. S.D. is indicated by the error bars.
HCT116 cells are first treated for 24 hours with 5 mM DFMO followed by another 24 hours treatment of replenished 5 mM DFMO and PG-11144 in the indicated doses alone or simultaneously. RNA isolation and qPCR are performed. The quantified results are the means of triplicate treatments with S.D. as indicated. The transcript level for control samples is set to a value of 1.
RNA Isolation and qPCR: RNA is extracted using TRIzol reagents (Invitrogen, Carlsbad, Calif.). First-strand cDNA is synthesized using M-MLV reverse transcriptase with an oligo(dT) primer (Invitrogen). qPCR is performed in a MyiQ single color real-time PCR machine (Bio-Rad, Hercules, Calif.) with GAPDH as an internal control. The SFRP2 primers used are: sense, 5′ AAGCCTGCAAAAATAAAAATGATG (SEQ ID NO: 1); antisense, 5′ TGTAAATGGTCTTGCTCTTGGTCT (SEQ ID NO: 2) (annealing at 53° C.).

[9] = system: H3K4me2 at the promoter of SFRP2 in HCT116 cells; test: ChIP analysis of H3K4me2 at the SFRP2 promoter; format: cell-based, human; conditions: 2.5 μM PG-11144 alone
Procedure: HCT116 cells are first treated for 24 hours with 5 mM DFMO followed by another 24 hours treatment of replenished 5 mM DFMO and 2.5 μM PG-11144 alone or simultaneously. Chromatin immunoprecipitation (CHIP) analysis is performed using EZ-chip kit (Millipore). In brief, cells are exposed to 1% formaldehyde to cross-link proteins, and two million cells are used for each CHIP assay. Antibodies against H3K4me2, and for control, H3 are used as indicated for immunoprecipitation of protein-DNA complexes. Quantitative ChIP is performed using qPCR on the MyiQ single color real-time PCR machine. The PCR primer sets used for amplification of precipitated SFRP2 promoter fragments are as follows: sense, 5′ CTCCCTCCCAGCCTGCCCATCTT (SEQ ID NO: 3); antisense, 5′ ACTGCCCACCATTTCCCCGTTTTG (SEQ ID NO: 4) (annealing at 61° C.). The relative enrichment of H3K4me2 for control samples is set to a value of 1.
Chromatin Immunoprecipitation (ChIP): CHIP analysis is performed using EZ-chip kit (Millipore) according to the manufacturer's instruction. In brief, cells are exposed to 1% formaldehyde to cross-link proteins, and two million cells are used for each CHIP assay. Antibody against H3 can be obtained from Abeam (Cambridge, Mass.) and antibody against H3K4me2 can be obtained from Millipore. Quantitative ChIP is performed using qPCR on the MyiQ single color real-time PCR machine. […]

[10] = system: HCT116 human colon tumors; test: Established tumors in nude mouse model; format: in vivo; conditions: PG-11144 alone, nude mice

## NCCCC(N)(C(=O)O)C(F)F (racemic) [D,L-DFMO]
[1]
  Inhibition of ODC activity: inhibitory

## NCCC[C@](N)(C(=O)O)C(F)F [L-DFMO]
[1]
  Inhibition of ODC activity: inhibitory
[2]
  Effect on auditory function (compound action potential, cochlear microphonic, cochlear potentials): significant disruption of normal cochlear potentials

## NCCC[C@](N)(C(=O)O)C(F)F [DFMO, 2-difluoromethylornithine]
[3]; DFMO 5 mM alone
  Polyamines: Putresine: 0.0 nmol/mg Protein
  Polyamines: Spermidine: 0.0 nmol/mg Protein
  Polyamines: Spermine: 13.9 nmol/mg Protein
[4]
  Growth of human tumors compared to control mice: significantly decreased
[5]
  Number and size of colon adenomas and carcinomas: reduces the number and size of colon adenomas and carcinomas

## NCCC[C@@](N)(C(=O)O)C(F)F [D-DFMO]
[6]
  Ki of D-DFMO relative to the L-form: four fold lower
  Ki of D-DFMO relative to the mixture: 3 fold
[1]
  Inhibition of ODC activity: inhibitory
[2]
  Effect on auditory function (compound action potential, cochlear microphonic, cochlear potentials): no significant effects

## N[C@@H]1C[C@H]1c1ccccc1 [tranylcypromine, (1R,2S)-2-phenylcyclopropan-1-amine]
[7]
  Effect on Egr1 and Oct4 gene transcription: transcriptional de-repression

## CCNCCCCNCCCCNCCCCNCCCCNCC=CCNCCCCNCCCCNCCCCNCCCCNCC (stereo in doubt) [PG-11144]
[3]; PG-11144 0.5 μM, 24 h
  Polyamines: Putresine: 4.7 nmol/mg Protein
  Polyamines: Spermidine: 9.1 nmol/mg Protein
  Polyamines: Spermine: 11.2 nmol/mg Protein
[3]; PG-11144 1 μM, 24 h
  Polyamines: Putresine: 4.7 nmol/mg Protein
  Polyamines: Spermidine: 8.4 nmol/mg Protein
  Polyamines: Spermine: 10.1 nmol/mg Protein
[3]; PG-11144 2.5 μM, 24 h
  Polyamines: Putresine: 3.8 nmol/mg Protein
  Polyamines: Spermidine: 5.6 nmol/mg Protein
  Polyamines: Spermine: 6.2 nmol/mg Protein
[3]; PG-11144 5 μM, 24 h
  Polyamines: Putresine: 0.0 nmol/mg Protein
  Polyamines: Spermidine: 4.2 nmol/mg Protein
  Polyamines: Spermine: 4.9 nmol/mg Protein
[3]; PG-11144 10 μM, 24 h
  Polyamines: Putresine: 0.0 nmol/mg Protein
  Polyamines: Spermidine: 4.1 nmol/mg Protein
  Polyamines: Spermine: 6.4 nmol/mg Protein
[8]; 2.5 μM PG-11144 alone
  SFRP2 expression: does not lead to increased SFRP2 expression
[8]; 5 μM PG-11144 with 5 mM DFMO
  SFRP2 re-expression, synergy with DFMO (dose response): greatest synergy with DFMO
[8]; PG-11144 concentrations higher than 5 μM with 5 mM DFMO
  SFRP2 expression (dose response): less SFRP2 expression
[9]
  Promoter H3K4me2 levels (SFRP2 promoter, ChIP): does not lead to
[10]
  Antitumor activity on established tumors: effective in treating established tumors; also recorded: effective in shrinking established HCT116 human colon tumors
